In PubChem BioAssay (NCI):
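Abbreviation: GI50, concentration required for 50% inhibition of growth. TGI: concentration producing complete growth inhibition.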

Key:
Test in all cases: inhibition of tumour cell growth, NCI panel, 384-well format
RXF 393 renal = system: RXF 393 renal
CCRF-CEM leukemia = system: CCRF-CEM leukemia
A498 renal = system: A498 renal
HCT-15 colon = system: HCT-15 colon
EKVX NSCLC = system: EKVX NSCLC
BT-549 breast = system: BT-549 breast
NCI-H460 NSCLC = system: NCI-H460 NSCLC
K-562 leukemia = system: K-562 leukemia
UACC-257 melanoma = system: UACC-257 melanoma
UACC-62 melanoma = system: UACC-62 melanoma
UO-31 renal = system: UO-31 renal
M14 melanoma = system: M14 melanoma
TK-10 renal = system: TK-10 renal
PC-3 prostate = system: PC-3 prostate
SW-620 colon = system: SW-620 colon
OVCAR-3 ovarian = system: OVCAR-3 ovarian
786-0 renal = system: 786-0 renal
DU-145 prostate = system: DU-145 prostate
COLO 205 colon = system: COLO 205 colon
OVCAR-8 ovarian = system: OVCAR-8 ovarian
SF-295 CNS = system: SF-295 CNS
SK-MEL-5 melanoma = system: SK-MEL-5 melanoma
HOP-62 NSCLC = system: HOP-62 NSCLC
MALME-3M melanoma = system: MALME-3M melanoma
LOX IMVI melanoma = system: LOX IMVI melanoma
HL-60(TB) leukemia = system: HL-60(TB) leukemia
HCT-116 colon = system: HCT-116 colon
CAKI-1 renal = system: CAKI-1 renal
SNB-75 CNS = system: SNB-75 CNS
MDA-MB-435 melanoma = system: MDA-MB-435 melanoma
NCI/ADR-RES ovarian = system: NCI/ADR-RES ovarian
NCI-H226 lung = system: NCI-H226 lung
SF-268 CNS = system: SF-268 CNS
HT29 colon = system: HT29 colon
MCF7 breast = system: MCF7 breast
OVCAR-5 ovarian = system: OVCAR-5 ovarian
HOP-92 NSCLC = system: HOP-92 NSCLC
ACHN renal = system: ACHN renal
IGROV1 ovarian = system: IGROV1 ovarian
SNB-19 CNS = system: SNB-19 CNS
HCC-2998 colon = system: HCC-2998 colon
OVCAR-4 ovarian = system: OVCAR-4 ovarian
MOLT-4 leukemia = system: MOLT-4 leukemia
KM12 colon = system: KM12 colon
NCI-H322M lung = system: NCI-H322M lung
HS 578T breast = system: HS 578T breast
A549 NSCLC = system: A549 NSCLC

**Q.** How did the GI50 (RXF 393 renal) turn out when `C[C@]12CCCN1CC1=NNC(=O)c3cc(F)cc4[nH]c2c1c34` was run?
**A.** 12.8 µM

**Q.** What about the TGI (RXF 393 renal) of the same molecule?
**A.** 30.9 µM

**Q.** What about the GI50 (CCRF-CEM leukemia) of the same molecule?
**A.** 14.4 µM

**Q.** And the TGI (CCRF-CEM leukemia)?
**A.** 27.8 µM

**Q.** What about the GI50 (A498 renal) of the same molecule?
**A.** 18.4 µM

**Q.** And the TGI (A498 renal)?
**A.** 49 µM

**Q.** What about the GI50 (HCT-15 colon) of the same molecule?
**A.** 32 µM

**Q.** And the TGI (HCT-15 colon)?
**A.** > 95.3 µM

**Q.** And the GI50 (EKVX NSCLC)?
**A.** 20.2 µM

**Q.** What about the TGI (EKVX NSCLC) of the same molecule?
**A.** 51.6 µM

**Q.** And the GI50 (BT-549 breast)?
**A.** 16.4 µM

**Q.** What about the TGI (BT-549 breast) of the same molecule?
**A.** 42.2 µM

**Q.** And the GI50 (NCI-H460 NSCLC)?
**A.** 4.64 µM

**Q.** And the TGI (NCI-H460 NSCLC)?
**A.** 20.6 µM

**Q.** What about the GI50 (K-562 leukemia) of the same molecule?
**A.** 38.6 µM

**Q.** What about the TGI (K-562 leukemia) of the same molecule?
**A.** > 100 µM

**Q.** What about the GI50 (UACC-257 melanoma) of the same molecule?
**A.** 37.2 µM

**Q.** What about the TGI (UACC-257 melanoma) of the same molecule?
**A.** > 92.2 µM

**Q.** What about the GI50 (UACC-62 melanoma) of the same molecule?
**A.** 11.7 µM

**Q.** What about the TGI (UACC-62 melanoma) of the same molecule?
**A.** 28.1 µM

**Q.** What about the GI50 (UO-31 renal) of the same molecule?
**A.** 27.5 µM

**Q.** What about the TGI (UO-31 renal) of the same molecule?
**A.** 96.1 µM

**Q.** And the GI50 (M14 melanoma)?
**A.** 18.3 µM

**Q.** What about the TGI (M14 melanoma) of the same molecule?
**A.** 43.4 µM

**Q.** What about the GI50 (TK-10 renal) of the same molecule?
**A.** 24.1 µM

**Q.** What about the TGI (TK-10 renal) of the same molecule?
**A.** 73.9 µM

**Q.** And the GI50 (PC-3 prostate)?
**A.** 20 µM

**Q.** And the TGI (PC-3 prostate)?
**A.** > 80.7 µM

**Q.** What about the GI50 (SW-620 colon) of the same molecule?
**A.** 7.57 µM

**Q.** And the TGI (SW-620 colon)?
**A.** > 39.2 µM

**Q.** And the GI50 (OVCAR-3 ovarian)?
**A.** 14 µM

**Q.** And the TGI (OVCAR-3 ovarian)?
**A.** 39.9 µM

**Q.** What about the GI50 ([…]-0 renal) of the same molecule?
**A.** 29 µM

**Q.** And the TGI (786-0 renal)?
**A.** > 80.9 µM

**Q.** What about the GI50 (DU-145 prostate) of the same molecule?
**A.** 27.9 µM

**Q.** What about the TGI (DU-145 prostate) of the same molecule?
**A.** 80 µM

**Q.** And the GI50 (COLO 205 colon)?
**A.** 17.8 µM

**Q.** And the TGI (COLO 205 colon)?
**A.** 45.1 µM

**Q.** What about the GI50 (OVCAR-8 ovarian) of the same molecule?
**A.** 13 µM

**Q.** And the TGI (OVCAR-8 ovarian)?
**A.** 35.7 µM

**Q.** And the GI50 (SF-295 CNS)?
**A.** 10.7 µM

**Q.** What about the TGI (SF-295 CNS) of the same molecule?
**A.** 51.9 µM

**Q.** What about the GI50 (SK-MEL-5 melanoma) of the same molecule?
**A.** 19.6 µM

**Q.** What about the TGI (SK-MEL-5 melanoma) of the same molecule?
**A.** 36.7 µM

**Q.** What about the GI50 (HOP-62 NSCLC) of the same molecule?
**A.** 10.9 µM

**Q.** And the TGI (HOP-62 NSCLC)?
**A.** 45.6 µM

**Q.** What about the GI50 (MALME-3M melanoma) of the same molecule?
**A.** 34.4 µM

**Q.** And the TGI (MALME-3M melanoma)?
**A.** 83.6 µM

**Q.** And the GI50 (LOX IMVI melanoma)?
**A.** 16.3 µM

**Q.** What about the TGI (LOX IMVI melanoma) of the same molecule?
**A.** 60.4 µM

**Q.** What about the GI50 (HL-60(TB) leukemia) of the same molecule?
**A.** 15.6 µM

**Q.** What about the TGI (HL-60(TB) leukemia) of the same molecule?
**A.** 29.1 µM

**Q.** What about the GI50 (HCT-116 colon) of the same molecule?
**A.** 9 µM

**Q.** What about the TGI (HCT-116 colon) of the same molecule?
**A.** 43.3 µM

**Q.** And the GI50 (CAKI-1 renal)?
**A.** 18.1 µM

**Q.** What about the TGI (CAKI-1 renal) of the same molecule?
**A.** 69.4 µM

**Q.** And the GI50 (SNB-75 CNS)?
**A.** 23.3 µM

**Q.** What about the TGI (SNB-75 CNS) of the same molecule?
**A.** > 67.2 µM

**Q.** And the GI50 (MDA-MB-435 melanoma)?
**A.** 42.4 µM

**Q.** And the TGI (MDA-MB-435 melanoma)?
**A.** > 100 µM

**Q.** What about the GI50 (NCI/ADR-RES ovarian) of the same molecule?
**A.** 20.9 µM

**Q.** And the TGI (NCI/ADR-RES ovarian)?
**A.** 75 µM

**Q.** What about the GI50 (NCI-H226 lung) of the same molecule?
**A.** 14.8 µM

**Q.** What about the TGI (NCI-H226 lung) of the same molecule?
**A.** 50.2 µM

**Q.** What about the GI50 (SF-268 CNS) of the same molecule?
**A.** 14.5 µM

**Q.** What about the TGI (SF-268 CNS) of the same molecule?
**A.** 31.6 µM

**Q.** What about the GI50 (HT29 colon) of the same molecule?
**A.** 22.8 µM

**Q.** And the TGI (HT29 colon)?
**A.** 74.7 µM

**Q.** And the GI50 (MCF7 breast)?
**A.** 19.4 µM

**Q.** And the TGI (MCF7 breast)?
**A.** 71.1 µM

**Q.** What about the GI50 (OVCAR-5 ovarian) of the same molecule?
**A.** 17.9 µM

**Q.** And the TGI (OVCAR-5 ovarian)?
**A.** 44.5 µM

**Q.** And the GI50 (HOP-92 NSCLC)?
**A.** 18.4 µM

**Q.** What about the TGI (HOP-92 NSCLC) of the same molecule?
**A.** > 60.9 µM

**Q.** And the GI50 (ACHN renal)?
**A.** 24 µM

**Q.** What about the TGI (ACHN renal) of the same molecule?
**A.** > 76.2 µM

**Q.** And the GI50 (IGROV1 ovarian)?
**A.** 21.7 µM

**Q.** What about the TGI (IGROV1 ovarian) of the same molecule?
**A.** > 89.6 µM

**Q.** And the GI50 (SNB-19 CNS)?
**A.** 35.2 µM

**Q.** What about the TGI (SNB-19 CNS) of the same molecule?
**A.** 97.7 µM

**Q.** And the GI50 (HCC-2998 colon)?
**A.** 9.2 µM

**Q.** What about the TGI (HCC-2998 colon) of the same molecule?
**A.** 27.5 µM

**Q.** What about the GI50 (OVCAR-4 ovarian) of the same molecule?
**A.** 26.5 µM

**Q.** And the TGI (OVCAR-4 ovarian)?
**A.** 79.4 µM

**Q.** And the GI50 (MOLT-4 leukemia)?
**A.** 2.48 µM

**Q.** And the TGI (MOLT-4 leukemia)?
**A.** 10.5 µM

**Q.** What about the GI50 (KM12 colon) of the same molecule?
**A.** 13.2 µM

**Q.** And the TGI (KM12 colon)?
**A.** 42.3 µM

**Q.** What about the GI50 (NCI-H322M lung) of the same molecule?
**A.** 23.4 µM

**Q.** What about the TGI (NCI-H322M lung) of the same molecule?
**A.** 52.5 µM

**Q.** What about the GI50 (HS 578T breast) of the same molecule?
**A.** 13.6 µM

**Q.** What about the TGI (HS 578T breast) of the same molecule?
**A.** 30.1 µM

**Q.** What about the GI50 (A549 NSCLC) of the same molecule?
**A.** 29.1 µM

**Q.** What about the TGI (A549 NSCLC) of the same molecule?
**A.** > 100 µM
